# Reference: article PMC7844219, “Antifibrotic effect of novel neutrophil gelatinase-associated lipocalin inhibitors in cardiac and renal disease models” (Scientific Reports, 2021)
# Assays:
# hNGAL [1] = target: T1, hNGAL (Homo sapiens, UniProt P80188); experiment: hNGAL-induced IL6 and Col I secretion in human cardiac fibroblasts (ELISA); assay type: cell-based; design: % inhibition versus hNGAL on IL-6 secretion: concentration or dose not given beside the values; conditions: for IL-6 secretion: hNGAL-treated human cardiac fibroblasts, mean ± SEM
# T1 construct: purchased R&D Systems
# T1 sequence (P80188 21-198): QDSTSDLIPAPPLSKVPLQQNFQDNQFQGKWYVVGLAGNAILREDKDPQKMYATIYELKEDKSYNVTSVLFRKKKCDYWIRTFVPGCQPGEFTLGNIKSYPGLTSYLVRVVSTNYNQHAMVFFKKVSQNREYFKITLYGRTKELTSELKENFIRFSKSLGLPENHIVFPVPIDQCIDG
# Protocol: (§1) Primary human cardiac fibroblasts (HCF) were obtained from Promocell (Heidelberg, Germany) and maintained in Fibroblast Media 3 following manufacturer’s instructions (Promocell). Cells were used between passages 5 and 7. Cells were stimulated with recombinant hNGAL (500 ng/mL, R&D Systems) or with TGFβ (10 ng/mL, R&D Systems) for 24 h. To assess cell proliferation the MTT test was used following provider’s instructions (Roche). For protein analysis. Primary Mouse Kidney Fibroblasts (MKF) were isolated from Wild Type (WT) mice. Briefly, 8 weeks old mice were sacrificed by cervical dislocation and kidneys were cleaned and rinsed in cold DPBS (Dulbecco's Phosphate-Buffered Saline). The renal cortex was minced and incubated in Dulbecco’s modified eagle medium/Nutrient mixture F-12 (DMEM/F12, Sigma) containing 1 mg/mL collagenase A (Roche) during 25 min at 37 °C. The digestion was inactivated by adding culture medium (DMEM/F12 + 10% FBS) then the cell suspension was passed through a 100-μm cell strainer. After centrifugation, the pellet (containing MKF) was diluted with culture medium then plated in 75 cm^2 culture flask. After 24 h MKF were washed with DPBS before replacement of fresh culture medium. Thereafter, culture medium was changed every 48 h. Once 70–80% confluent, MKF were trypsinized and plated in 12 or 6-well plates. For experimental use, MKF were starved with culture medium containing only 3% FBS. MKF were treated with mNGAL (500 ng/mL, R&D Systems) or with TGFβ (10 ng/mL, R&D Systems) for 6 h for gene expression analysis.
# IL6 and collagen type I concentrations were measured in cardiac tissue and cell supernatants by ELISA according to the manufacturer's instructions (R&D Systems).
# hNGAL [2] = target: T1, hNGAL; experiment: hNGAL-induced intracellular profibrotic protein levels in human cardiac fibroblasts (Western blot); assay type: cell-based; design: % inhibition versus hNGAL on Col I protein level / % inhibition versus hNGAL on Col III protein level / % inhibition versus hNGAL on Fibronectin protein level / % inhibition versus hNGAL on Galectin 3 protein level: concentration or dose not given beside the values
# Protocol: as §1
# Total protein aliquots of 20 μg were prepared from cardiac homogenates and HCF and electrophoresed on SDS polyacrylamide gels and transferred to Hybond-c Extra nitrocellulose membranes (Amersham Biosciences). Membranes were incubated with primary antibodies for: Collagen I (Santa Cruz; dilution 1:500), Collagen type III (Santa Cruz; dilution 1:500), fibronectin (Millipore, 1:500), Galectin-3 (Thermo, 1:1000), α-SMA (Sigma, 1:1000), CTGF (Santa Cruz, 1:200), CD68 (Abcam, 1:500), CD80 (Santa Cruz, 1:500), CD86 (Santa Cruz, 1:500). […] After densitometric analyses, optical density values were expressed as arbitrary units. Results are expressed as an n-fold increase over the values of the control group in densitometric arbitrary units.
# mNGAL = target: T2, mNGAL (Mus musculus, UniProt P11672); experiment: mNGAL-induced gene expression in primary mouse kidney fibroblasts (RT-PCR); assay type: cell-based
# T2 construct: purchased R&D Systems
# T2 sequence (P11672 21-200): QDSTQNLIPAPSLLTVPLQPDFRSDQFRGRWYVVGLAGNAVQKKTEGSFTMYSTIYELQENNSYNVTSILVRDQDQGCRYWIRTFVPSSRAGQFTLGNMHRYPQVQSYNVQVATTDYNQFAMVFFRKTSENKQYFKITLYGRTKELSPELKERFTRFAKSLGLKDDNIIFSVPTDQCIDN
# Protocol: as §1
# Frozen tissues (kidneys, heart) were homogenized in TRIzol (Life Technologies, Illinois, USA) using FastPrep beads (MP-Bio, CA, USA). cDNAs were generated using the Superscript II reverse transcriptase kit (Invitrogen,NY, USA), and qPCR was performed as previously described. Briefly, transcript levels were analysed in a CFX396 apparatus (Biorad). The reactions were performed in duplicate for each sample using the IQ SYBR Green supermix Kit (Biorad,CA, USA). […]
# [3] = tested on: TGFβ-treated mouse kidney fibroblasts; experiment: Specificity: gene expression in TGFβ-treated mouse kidney fibroblasts; assay type: cell-based; conditions: 10 µM, Fig. S6
# Protocol: as §1, with “After centrifugation, the pellet (containing MKF) was diluted with culture medium then plated in 75 cm^2 culture flask. After 24 h MKF were washed with DPBS before replacement of fresh culture medium. Thereafter, culture medium was changed every 48 h. Once 70–80% confluent, MKF were trypsinized and plated in 12 or 6-well plates. For experimental use, MKF were starved with culture medium containing only 3% FBS. MKF were treated with mNGAL (500 ng/mL, R&D Systems) or with TGFβ (10 ng/mL, R&D Systems) for 6 h for gene expression analysis.” left out
# Frozen tissues (kidneys, heart) were homogenized in TRIzol (Life Technologies, Illinois, USA) using FastPrep beads (MP-Bio, CA, USA). cDNAs were generated using the Superscript II reverse transcriptase kit (Invitrogen,NY, USA), and qPCR was performed as previously described. Briefly, transcript levels were analysed in a CFX396 apparatus (Biorad). […]
# hERG channel = target: T3, hERG channel (Homo sapiens, UniProt Q12809); experiment: Cardiotoxicity, Predictor hERG fluorescence polarization kit; assay type: binding
# T3 construct: purchased Thermo Fisher Scientific
# T3 sequence (Q12809 whole entry): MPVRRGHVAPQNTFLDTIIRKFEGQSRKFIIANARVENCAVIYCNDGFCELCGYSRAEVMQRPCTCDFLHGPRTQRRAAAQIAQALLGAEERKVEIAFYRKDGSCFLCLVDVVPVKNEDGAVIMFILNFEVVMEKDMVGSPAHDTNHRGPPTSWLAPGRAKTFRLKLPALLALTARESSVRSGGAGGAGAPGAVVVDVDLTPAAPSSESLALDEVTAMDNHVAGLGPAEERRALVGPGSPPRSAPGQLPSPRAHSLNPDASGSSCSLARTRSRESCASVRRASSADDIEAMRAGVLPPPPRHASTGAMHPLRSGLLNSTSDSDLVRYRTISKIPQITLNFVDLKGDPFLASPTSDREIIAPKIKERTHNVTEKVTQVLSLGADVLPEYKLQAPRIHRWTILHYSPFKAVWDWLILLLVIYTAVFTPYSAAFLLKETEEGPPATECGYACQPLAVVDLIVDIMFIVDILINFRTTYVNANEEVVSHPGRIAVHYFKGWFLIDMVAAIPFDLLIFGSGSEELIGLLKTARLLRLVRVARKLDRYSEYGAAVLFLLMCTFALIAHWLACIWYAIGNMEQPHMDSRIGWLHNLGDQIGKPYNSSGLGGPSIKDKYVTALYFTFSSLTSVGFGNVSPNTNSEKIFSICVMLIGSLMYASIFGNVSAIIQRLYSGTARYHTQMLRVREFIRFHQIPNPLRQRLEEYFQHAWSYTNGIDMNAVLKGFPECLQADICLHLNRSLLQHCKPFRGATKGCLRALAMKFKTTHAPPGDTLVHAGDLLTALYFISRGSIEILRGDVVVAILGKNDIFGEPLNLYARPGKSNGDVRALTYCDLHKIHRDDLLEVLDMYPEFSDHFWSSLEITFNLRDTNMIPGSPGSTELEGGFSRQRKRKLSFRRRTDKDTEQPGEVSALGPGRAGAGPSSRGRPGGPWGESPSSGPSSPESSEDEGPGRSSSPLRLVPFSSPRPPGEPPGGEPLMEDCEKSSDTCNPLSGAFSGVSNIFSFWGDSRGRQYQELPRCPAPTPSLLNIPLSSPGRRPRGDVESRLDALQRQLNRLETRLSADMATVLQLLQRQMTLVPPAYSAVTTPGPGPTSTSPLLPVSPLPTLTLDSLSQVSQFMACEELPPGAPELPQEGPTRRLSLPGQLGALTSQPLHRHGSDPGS
# Protocol: (§2) Several parameters have been evaluated to determine ADME-Tox profile of the compounds. Two specific toxicity assays have been performed to assess hepatoxicity and cardiotoxicity. Hepatotoxicity was evaluated in isolated hepatocytes from swiss mice and determined by the thiazolyl blue tetrazolium bromide colorimetric assay (sigma, St Louis, MO, USA). Cardiotoxicity was evaluated using the commercially available Predictor hERG fluorescence polarization kit (Thermo Fisher Scientific, Illinois, USA). Several absorption, distribution, metabolism, and excretion (ADME) assays have been carried out. The following experiments were undertaken: stability in human microsomes, binding to human plasma protein, and CYP3A4 inhibition assay (Vivid CYP3A4 assay, Thermo Fisher Scientific, Illinois, USA). Physico-chemical properties were also assessed such as aqueous solubility and chemical stability.
# Aqueous solubility = assay type: physicochemical
# Protocol: as §2
# human plasma protein = experiment: Binding to human plasma protein; assay type: in vitro ADME
# Protocol: as §2
# [4] = 10 µM, human cardiac fibroblasts, Fig. 1C
# [5] = Table S2, human cardiac fibroblasts
structure (smiles),measurement,setting,value
CC(=O)c1cccc(S(=O)(=O)NCc2ccccc2-n2cccn2)c1 [GPZ614741],Increase in IL6 secretion induced by NGAL,"hNGAL [1]; 1 µM, human cardiac fibroblasts, Fig. S3",did not prevent
same,"NGAL-induced Col I secretion, in words",hNGAL [1]; [4],fully inhibited
same,"NGAL-induced IL6 secretion, in words",hNGAL [1]; [4],fully inhibited
same,IL-6 secretion,"hNGAL [1]; Table S1, first generation compounds, Control 1.0 ± 0.1, NGAL 2.21 ± 0.2",0.86 ± 0.2
same,% inhibition versus hNGAL on IL-6 secretion,"hNGAL [1]; Table S1, first generation compounds, human cardiac fibroblasts",61.1%
same,IL-6 secretion,"hNGAL [1]; Table S4, second generation compounds and parents, Control 1.00, NGAL 1.45",0.59 ± 0.02
same,% inhibition versus hNGAL on IL-6 secretion,"hNGAL [1]; Table S4, second generation compounds and parents, human cardiac fibroblasts",59.5%
same,"Inhibitor effect on hNGAL-induced IL6 secretion, in words","hNGAL [1]; human cardiac fibroblasts, text on Tables S1 and S4",important inhibitor effect
same,"hNGAL-induced expression of intracellular profibrotic proteins (Col I, Col III, fibronectin, Gal3), in words","hNGAL [2]; 10 µM, human cardiac fibroblasts, Fig. 1D",blocked
same,Col III synthesis (protein level),"hNGAL [2]; Table S2, hNGAL-treated human cardiac fibroblasts, Control 1.0, NGAL 1.67, mean ± SEM",1.05 ± 0.1
same,Fibronectin synthesis (protein level),"hNGAL [2]; Table S2, hNGAL-treated human cardiac fibroblasts, Control 1.0, NGAL 1.8, mean ± SEM",0.95 ± 0.2
same,Col I synthesis (protein level),"hNGAL [2]; Table S2, hNGAL-treated human cardiac fibroblasts, Control 1.0, NGAL 2.03, mean ± SEM",1.09 ± 0.2
same,Galectin-3 synthesis (protein level),"hNGAL [2]; Table S2, hNGAL-treated human cardiac fibroblasts, Control 1.0, NGAL 2.1, mean ± SEM",1.3 ± 0.1
same,% inhibition versus hNGAL on Col I protein level,hNGAL [2]; [5],46.4%
same,% inhibition versus hNGAL on Col III protein level,hNGAL [2]; [5],37.1%
same,% inhibition versus hNGAL on Fibronectin protein level,hNGAL [2]; [5],47.2%
same,% inhibition versus hNGAL on Galectin 3 protein level,hNGAL [2]; [5],38.1%
same,NGAL-induced collagen I expression,"mNGAL; 1 µM, mouse kidney fibroblasts, Fig. S4",prevented
same,"mNGAL-induced expression of profibrotic markers (Col I, fibronectin, αSMA)","mNGAL; 10 µM, MKF, mRNA, Fig. 3A",inhibited
same,"mNGAL-induced expression of inflammatory markers (IL6, MCP1)","mNGAL; 10 µM, MKF, mRNA, Fig. 3B",inhibited
same,"Effect on TGFβ-induced gene expression of Col I, Fibronectin and IL6",[3],no inhibitory effect
same,"Cardiotoxicity (hERG predictor assay), in words",hERG channel,nontoxic
same,Cardiotoxicity % (100= no toxicity),"hERG channel; Table S5, hERG predictor assay",101.76 ± 2.48%
same,"Solubility in aqueous buffers, in words",Aqueous solubility,perfectly soluble
same,Aquous solubility %,Aqueous solubility; Table S5,100%
same,"Plasma protein binding (PPB), in words",human plasma protein,low
same,hPPB%,"human plasma protein; Table S5, human plasma protein binding",71.16%
